We go through 7 compounds from article PMC7917821, “In Vitro and In Silico Studies of Soluble Epoxide Hydrolase Inhibitors from the Roots of Lycopus lucidus” (Plants, 2021).

Test [1] concerns the target T1, sEH (Homo sapiens, UniProt P34913).
T1 construct: purchased Cayman 10011669
T1 sequence (P34913 1-555): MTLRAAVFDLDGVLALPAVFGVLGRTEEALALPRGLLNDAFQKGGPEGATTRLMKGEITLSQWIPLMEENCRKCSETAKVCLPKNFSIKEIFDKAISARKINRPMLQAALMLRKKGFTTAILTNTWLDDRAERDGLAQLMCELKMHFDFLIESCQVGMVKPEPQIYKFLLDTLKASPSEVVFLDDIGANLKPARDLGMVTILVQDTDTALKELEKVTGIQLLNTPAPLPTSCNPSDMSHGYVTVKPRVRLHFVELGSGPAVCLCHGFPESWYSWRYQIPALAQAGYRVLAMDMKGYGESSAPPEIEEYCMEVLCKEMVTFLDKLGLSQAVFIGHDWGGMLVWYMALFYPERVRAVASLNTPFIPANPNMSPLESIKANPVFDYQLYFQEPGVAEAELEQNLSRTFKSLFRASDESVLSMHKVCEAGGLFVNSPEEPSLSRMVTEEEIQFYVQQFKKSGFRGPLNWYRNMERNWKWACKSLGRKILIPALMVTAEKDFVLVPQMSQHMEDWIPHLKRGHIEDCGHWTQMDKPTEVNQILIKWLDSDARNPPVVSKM
The test is described as follows: Enzyme kinetics on sEH (Lineweaver–Burk and Dixon plots). To be noted: for Ki: Dixon plot; for sEH inhibition Type: Lineweaver–Burk plots, various substrate concentrations. The class given is biochemical. The protocol:
The enzymatic kinetics of these compounds (7–10) were determined by calculating the initial velocity of each inhibitor at various substrate concentrations (0.19–5 mM) (Figure 2). […] This mixed type had bound to allosteric sites, a site different from the active site. In addition, the inhibitory constant values (Ki) were calculated using the Dixon plot revised from the Lineweaver–Burk plot.
(§1) The inhibitory activities on the sEH were measured according to the modified methods in previous papers. PHOME was used as a substrate to examine the inhibitions of sEH, which was determined using a hydrolysis reaction of PHOME. sEH was diluted in Bis Tris–HCl buffer (25 mM containing 0.1 mg/mL BSA, pH 7.0) at 12.15 ng/mL. In a 96-well plate, 130 μL of recombinant human sEH, 20 μL of sample, and 50 μL of 40 mM PHOME were added. The absorbance was measured at excitation filter 330 nm and emission filter 465 nm for 30 min at an interval of 30 s after adding the last solution in a 96-well plate. All assays were performed in triplicate, using microplate reader (Tecan infinite F200, Grödig, Austria). Inhibitory activity (%) was calculated using the following equation:(1) Inhibitory Activity (%)=100−[Δsample / Δcontrol]×100 where Δcontrol and Δsample are the changed fluorescence […], respectively.

Test [2] addresses T1, sEH. The test can be described thus: sEH inhibitory activity assay (fluorometric, PHOME substrate). The class given is biochemical. To be noted: for IC50: PHOME substrate, triplicate, mean ± SD; for inhibition at 100 µM: read-out: sEH inhibitory activity. How it is done: The tests were conducted using a multi plate system of the fluorometric photometer at excitation and emission wavelengths of 330 and 465 nm, respectively. […] To identify potential inhibitors of sEH, all compounds were measured at 100 µM concentration.
as §1
The enzyme inhibition parameter IC50 was calculated by fitting hyperbola equations to the data using nonlinear regression of the plot using Sigma Plot (SPP Inc., Chicago, IL, USA.). The experimental results were performed in triplicate, and presented as the means ± SD.

In test [3] the target is T1, sEH. Details: method as in PMID 26548595, PMID 32972033, doi:10.1039/C6RA04207D. To be noted: earlier reports; cited from earlier work.

Like-named read-outs stand apart in the source and are kept apart here.

Regarding `COC(=O)[C@@H](Cc1ccc(O)c(O)c1)OC(=O)/C=C/c1ccc(O)c(O)c1` [Compound 7, methyl rosmarinate], on sEH [1], the Ki amounted to 9.2 µM and the “sEH inhibition Type” value was “competitive inhibitors”. Also, the IC50 against sEH [2] amounted to 16.8 ± 0.6 µM. The inhibition at 100 µM at sEH [2] (at 100 µM concentration) was above 50%.

Consider `COC(=O)[C@H]1c2c(/C=C/C(=O)O[C@H](Cc3ccc(O)c(O)c3)C(=O)O)ccc(O)c2O[C@@H]1c1ccc(O)c(O)c1` [Compound 10, 9″″-methyl lithospermate], for which, on sEH [1], the Ki amounted to 7.6 µM and the “sEH inhibition Type” value is “competitive inhibitors”. The compound also gave an IC50 at sEH [2] of 35.7 ± 2.1 µM. For the same compound, the inhibition at 100 µM at sEH [2] (at 100 µM concentration) is above 50%.

On to `COC(=O)[C@@H](Cc1ccc(O)c(O)c1)OC(=O)/C=C/c1ccc(O)c2c1[C@H](C(=O)OC)[C@@H](c1ccc(O)c(O)c1)O2` [Compound 9, dimethyl lithospermate], for which, on sEH [1], affinity was put at a Ki of 1.9 µM and the “sEH inhibition Type” value was “competitive inhibitors”. The compound also yielded a 50% inhibitory concentration (IC50) against sEH [2] of 10.6 ± 3.2 µM. In addition, the inhibition at 100 µM at sEH [2] (at 100 µM concentration) is above 50%.

As for `C=C(C)[C@@H]1CC[C@]2(C(=O)O)CC[C@]3(C)[C@H](CC[C@@H]4[C@@]5(C)CC[C@H](O)C(C)(C)[C@@H]5CC[C@]43C)[C@@H]12` [Compound 1, betulinic acid], at sEH [2], the IC50 came to 67.8 ± 3.2 µM and the inhibition at 100 µM was above 50%. Further, on sEH [3], the “sEH inhibitory activity previously shown” value is recorded as “significant sEH inhibitory activity”.

As to `COc1ccc(CCO[C@@H]2O[C@H](CO)[C@@H](OC(=O)/C=C/c3ccc(O)c(OC)c3)[C@H](O[C@@H]3O[C@@H](C)[C@H](O)[C@@H](O)[C@H]3O)[C@H]2O)cc1O` [Compound 8, martynoside], on sEH [1], affinity was put at a Ki of 5.7 µM and the “sEH inhibition Type” value is on record as “mixed type inhibitor”. For the same compound, the IC50 at sEH [2] stood at 19.5 ± 4.1 µM. The inhibition at 100 µM at sEH [2] (at 100 µM concentration) is above 50%. The “sEH inhibitory activity previously shown” value on sEH [3] was “significant sEH inhibitory activity”.

Compound `COC(=O)[C@H](O)Cc1ccc(O)cc1` [Compound 6, latifolicinin C] showed an IC50 against sEH [2] of 52 ± 1.9 µM. The inhibition at 100 µM on sEH [2] (at 100 µM concentration) was above 50%.

`C[C@H]1[C@H](C)CC[C@]2(C(=O)O)CC[C@]3(C)C(=CC[C@@H]4[C@@]5(C)CC[C@H](O)C(C)(C)[C@@H]5CC[C@]43C)[C@H]12` [Compound 3, ursolic acid] came in with an IC50 against sEH [2] of 42.1 ± 4 µM. In addition, the inhibition at 100 µM on sEH [2] (at 100 µM concentration) was above 50%. In addition, the “sEH inhibitory activity previously shown” value at sEH [3] is reported as “significant sEH inhibitory activity”.

Broadly, the Ki is a measure of affinity in units of concentration, obtained from inhibition or displacement. Usually IC50 stands for the concentration needed to halve the response being measured.
